Assay results published in patent US7022716B2, “Cyclic amine phenyl beta-3 adrenergic receptor agonists” (Wyeth, priority 2000, dated 2006).

Assays:
β3 Transgenic(Tg) Mice = assay: Thermogenesis (Oxymax indirect calorimetry) in β3 transgenic mice; conditions: percent increase in thermogenesis over baseline; female FVB β3 transgenic mice; i.p. 0.1-20 mg/kg or oral 1.0-30 mg/kg
β3 Knockout(KO) Mice = assay: Thermogenesis (Oxymax indirect calorimetry) in β3 knockout mice; conditions: percent increase in thermogenesis over baseline; female FVB β3 knockout mice; i.p. 0.1-20 mg/kg or oral 1.0-30 mg/kg
[1] = biological target: T1, human β3 adrenergic receptor (Homo sapiens, UniProt P13945); assay: cAMP (SPA) response in CHO cells transfected with human β3 adrenergic receptor; assay type: cell-based; parameters: key: fraction of maximal isoproterenol (10^-5 M) response; conditions: maximal response relative to maximal response of isoproterenol at 10^-5 M
T1 construct: Full length β3 AR clones (402 amino acids) containing the last 6 amino acids of hβ3-AR are prepared; expressed in transfected cells; host or cells: CHO (Chinese hamster ovary) cells
T1 sequence (P13945 whole entry): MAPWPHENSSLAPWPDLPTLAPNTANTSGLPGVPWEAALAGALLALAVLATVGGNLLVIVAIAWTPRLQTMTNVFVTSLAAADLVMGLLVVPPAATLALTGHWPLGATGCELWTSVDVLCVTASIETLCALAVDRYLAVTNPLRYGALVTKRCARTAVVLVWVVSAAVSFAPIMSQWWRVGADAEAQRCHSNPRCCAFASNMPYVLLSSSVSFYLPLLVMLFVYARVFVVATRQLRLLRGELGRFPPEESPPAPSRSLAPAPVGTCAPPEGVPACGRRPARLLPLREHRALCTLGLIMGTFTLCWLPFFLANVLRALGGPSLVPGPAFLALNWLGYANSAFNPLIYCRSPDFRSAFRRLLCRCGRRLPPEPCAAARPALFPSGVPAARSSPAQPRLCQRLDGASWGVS
Procedure, shortened: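 Reactions were stopped with 0.2N HCl and neutralised, and cAMP was measured by SPA. Activity is expressed as percent of the maximal 10^−5 M isoproterenol response.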

Compound | melting point | IA(β3) [1] | Thermogenesis (Tg mice) (β3 Transgenic(Tg) Mice) [%] | Thermogenesis (KO mice) (β3 Knockout(KO) Mice) [%]
CS(=O)(=O)Nc1cc(C(O)CNC2CCN(c3ccc(CC4SC(=O)NC4=O)cc3)CC2)ccc1O [Example 84, N-[5-((2R)-2-{1-[4-(2,4-Dioxo-thiazolidin-5-ylmethyl}-phenyl]-piperidin-4-ylamino}-1-hydroxy-ethyl)-2-hydroxy-phenyl]-methanesulfonamide] | > 180 °C (dec.) | – | 30 ± 4 | −2 ± 4
CCOC(=O)c1ccc(N2CCC(NC[C@H](O)c3ccc(O)c(NS(C)(=O)=O)c3)CC2)cc1 [Example 180, {4-[(2R)-2-Hydroxy-2-(4-hydroxy-3-methanesulfonylamino-phenyl)-ethylamino]-piperidin-1-yl}-benzoic acid ethyl ester] | – | 1 | 42 ± 4 | 9 ± 5
CS(=O)(=O)Nc1cc([C@@H](O)CNC2CCN(c3ccc(C(=O)O)cc3)CC2)ccc1O [Example 186, 4-{4-[(2R)-2-Hydroxy-2-(4-hydroxy-3-methanesulfonylamino-phenyl)-ethylamino]-piperidin-1-yl}-benzoic acid] | > 85 °C (dec.) | 1.1 | 77 ± 12 | 16 ± 7
CCOC(=O)[C@H](CC(C)C)NC(=O)c1ccc(N2CCC(NC[C@H](O)c3ccc(O)c(NS(C)(=O)=O)c3)CC2)cc1 [Example 198, (2S)-2-(4-{4-[(2R)-2-Hydroxy-2-(4-hydroxy-3-methanesulfonylamino-phenyl)-ethylamino]-piperidin-1-yl}-benzoylamino)-4-methyl-pentanoic acid ethyl ester:] | > 85 °C (dec.) | 0.97 | – | –
COC(=O)[C@@H]1CCCN1C(=O)c1ccc(N2CCC(NC[C@H](O)c3ccc(O)c(NS(C)(=O)=O)c3)CC2)cc1 [Example 200, 1-(4-{4-[(2R)-2-Hydroxy-2-(4-hydroxy-3-methanesulfonylamino-phenyl)-ethylamino]-piperidin-1-yl}-benzoyl)-pyrrolidine-(2S)-2-carboxylic acid methyl ester] | > 80 °C (dec.) | 1.1 | – | –
CCOC(=O)[C@@H](NC(=O)c1ccc(N2CCC(NC[C@H](O)c3ccc(O)c(NS(C)(=O)=O)c3)CC2)cc1)C(C)C [Example 202, (2S)-2-(4-{4-[(2R)-2-Hydroxy-2-(4-hydroxy-3-methanesulfonylamino-phenyl)-ethylamino]-piperidin-1-yl}-benzoylamino)-3-methyl-butyric acid ethyl ester] | > 85 °C (dec.) | 1.2 | – | –
COC(=O)[C@H](Cc1ccccc1)NC(=O)c1ccc(N2CCC(NC[C@H](O)c3ccc(O)c(NS(C)(=O)=O)c3)CC2)cc1 [Example 204, (2S)-2-(4-{4-[(2R)-2-Hydroxy-2-(4-hydroxy-3-methanesulfonylamino-phenyl)-ethylamino]-piperidin-1-yl}-benzoylamino)-3-phenyl-propionic acid methyl ester] | > 98 °C (dec.) | 1.2 | – | –
COC(=O)C1(NC(=O)c2ccc(N3CCC(NC[C@H](O)c4ccc(O)c(NS(C)(=O)=O)c4)CC3)cc2)CC1 [Example 206] | > 110 °C (dec.) | 0.94 | – | –
CCCCN(CC(=O)OCC)C(=O)c1ccc(N2CCC(NC[C@H](O)c3ccc(O)c(NS(C)(=O)=O)c3)CC2)cc1 [Example 207, [Butyl-(4-{4-[(2R)-2-hydroxy-2-(4-hydroxy-3-methanesulfonylamino-phenyl)-ethylamino]-piperidin-1-yl}-benzoyl)-amino]-acetic acid ethyl ester] | > 60 °C (dec.) | 1 | – | –
COC(=O)CNC(=O)c1ccc(N2CCC(NC[C@H](O)c3ccc(O)c(NS(C)(=O)=O)c3)CC2)cc1 [Example 208, Methyl[(4-{4-[((2R)-2-hydroxy-2-{4-hydroxy-3-[(methylsulfonyl)amino]phenyl}ethyl)amino]-1-piperidinyl}benzoyl)amino]acetate] | > 75 °C (dec.) | 0.97 | – | –

The next lines start with results.

melting point | IA(β3) [1] | Compound | Thermogenesis (Tg mice) (β3 Transgenic(Tg) Mice) [%] | Thermogenesis (KO mice) (β3 Knockout(KO) Mice) [%]
> 90 °C (dec.) | 1 | COC(=O)[C@H](CC(C)C)NC(=O)c1ccc(N2CCC(NCC(O)c3ccc(O)c(NS(C)(=O)=O)c3)CC2)cc1 (stereo partly drawn) [Example 209, (2S)-2-(4-{4-[2-Hydroxy-2-(4-hydroxy-3-methanesulfonylamino-phenyl)-ethylamino]-piperidin-1-yl}-benzoylamino)-4-methyl-pentanoic acid methyl ester] | – | –
220 °C | 1.36 | CS(=O)(=O)Nc1cc([C@@H](O)CNC2CCN(c3ccc(/C=C/C(=O)O)cc3)CC2)ccc1O [Example 210, (2E)-3-(4-{4-[(2R)-2-Hydroxy-2-(4-hydroxy-3-methanesulfonylamino-phenyl)-ethylamino]-piperidin-1-yl}-phenyl)-acrylic acid] | – | –
120 to 122 °C | 1 | CC(C)C[C@@H](CO)NC(=O)c1ccc(N2CCC(NC[C@H](O)c3ccc(O)c(NS(C)(=O)=O)c3)CC2)cc1 [Example 211, 4-{4-[((2R)-2-Hydroxy-2-{4-hydroxy-3-[(methylsulfonyl)amino]phenyl}ethyl)amino]-1-piperidinyl}-N-[(1S)-1-(hydroxymethyl)-3-methylbutyl]benzamide] | – | –
135 to 137 °C | 1.1 | CS(=O)(=O)Nc1cc([C@@H](O)CNC2CCN(c3ccc(C(=O)N[C@H]4CCCCNC4=O)cc3)CC2)ccc1O [Example 212] | – | –
168 to 170 °C | 0.97 | CCCCN(Cc1nnn[nH]1)C(=O)c1ccc(N2CCC(NC[C@H](O)c3ccc(O)c(NS(C)(=O)=O)c3)CC2)cc1 [Example 213, N-Butyl-4-{4-[((2R)-2-hydroxy-2-{4-hydroxy-3-[(methylsulfonyl)amino]phenyl}-ethyl)amino]-1-piperidinyl}-N-(1H-tetraazol-5-ylmethyl)benzamide] | – | –
190 to 201 °C | 0.89 | CCCC(=O)Nc1ccc(N2CCC(NC[C@H](O)COc3cccc4[nH]c(=O)[nH]c34)CC2)cc1 [Example 386, N-{4-[4-({(2S)-2-Hydroxy-3-[(2-oxo-2,3-dihydro-1H-benzimidazol-4-yl)oxy]propyl}-amino)-1-piperidinyl]phenyl}butanamide] | – | –
194 to 199 °C | 0.56 | CCCC(=O)Nc1ccc(N2CCC(NC[C@H](O)COc3cccc4[nH]c5ccccc5c34)CC2)cc1 [Example 387, N-[4-(4-{[(2S)-3-(9H-Carbazol-4-yloxy)-2-hydroxypropyl]amino}-1-piperidinyl)phenyl]butanamide] | – | –
77 to 84 °C | 0.75 | COc1ccc(C(=O)Nc2ccc(N3CCC(NC[C@H](O)COc4ccc(O)cc4)CC3)cc2)cc1OC [Example 388, N-[4-(4-{[(2S)-2-Hydroxy-3-(4-hydroxyphenoxy)propyl]amino}-1-piperidinyl)phenyl]-3,4-dimethoxybenzamide] | – | –
183 to 191 °C | 0.61 | COc1ccc(C(=O)Nc2ccc(N3CCC(NC[C@H](O)COc4cccc5[nH]c6ccccc6c45)CC3)cc2)cc1OC [Example 389, N-[4-(4-{[(2S)-3-(9H-Carbazol-4-yloxy)-2-hydroxypropyl]amino}-1-piperidinyl)phenyl]3,4-dimethoxybenzamide] | – | –
160 to 169 °C | 0.82 | O=C(Nc1ccc(N2CCC(NC[C@H](O)COc3cccc4[nH]c(=O)[nH]c34)CC2)cc1)c1ccc2c(c1)OCO2 [Example 390, N-{4-[4-({(2S)-2-Hydroxy-3-[(2-oxo-2,3-dihydro-1H-benzimidazol-4-yl)oxy]propyl}-amino)-1-piperidinyl]phenyl}-1,3-benzodioxole-5-carboxamide] | – | –
217 to 223 °C | 0.81 | O=C(Nc1ccc(N2CCC(NC[C@H](O)COc3cccc4[nH]c5ccccc5c34)CC2)cc1)c1ccc2c(c1)OCO2 [Example 391, N-[4-(4-{[(2S)-3-(9H-Carbazol-4-yloxy)-2-hydroxypropyl]amino}-1-piperidinyl)phenyl]-1,3-benzodioxole-5-carboxamide] | – | –
140 to 144 °C | 0.9 | O=C(CCC1CCCC1)Nc1ccc(N2CCC(NC[C@H](O)COc3cccc4[nH]c(=O)[nH]c34)CC2)cc1 [Example 392, 3-Cyclopentyl-N-{4-[4-({(2S)-2-hydroxy-3-[(2-oxo-2,3-dihydro-1H-benzimidazol-4-yl)oxy]propyl}amino)-1-piperidinyl]phenyl}propanamide] | – | –
82 to 90 °C | 1 | CS(=O)(=O)Nc1cc([C@@H](O)CNC2CCN(c3ccc(NC(=O)CCC4CCCC4)cc3)CC2)ccc1O [Example 393, 3-Cyclopentyl-N-(4-{4-[((2R)-2-hydroxy-2-{4-hydroxy-3-[(methylsulfonyl)amino]phenyl}-ethyl)amino]-1-piperidinyl}phenyl)propanamide] | – | –
104 to 113 °C | 1.3 | CS(=O)(=O)Nc1cc([C@@H](O)CNC2CCN(c3ccc(NC(=O)c4ccc5c(c4)OCO5)cc3)CC2)ccc1O [Example 394, N-(4-{4-[((2R)-2-Hydroxy-2-{4-hydroxy-3-[(methylsulfonyl)amino]phenyl}ethyl)amino]-1-piperidinyl}phenyl)-1,3-benzodioxole-5-carboxamide] | – | –
